Measurements reported in ChEMBL document CHEMBL1201862, “PubChem BioAssay data set” (2004).
Active and inactive are the calls of the source. Cut-off read from the data, not from the text of the source, for most assays here: actives have a measured IC50 and inactives only a lower limit.

Assays:
[1] = test system: HEK293; experiment: optical interference in Abeta FP readout, dose response, artefact control for IDE activator project, biochemical, fluorescence polarization (AID 588442); format: functional, cell-based; conditions: Homo sapiens
[2] = test system: HEK293; experiment: HEK cell cytotoxicity by LDH release, dose response, cytotoxicity control for IDE activator project, fluorescence, HEK cells (AID 588440); format: functional, cell-based; conditions: Homo sapiens;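 note: cytotoxicity by LDH release measuring loss of membrane integrity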
[3] = target: T1, Insulin-degrading enzyme (Homo sapiens, UniProt P14735); experiment: activators of recombinant IDE enzyme, dose response, counter-screen for IDE activator project, biochemical, fluorescence polarization (AID 588681)
T1 sequence (P14735 whole entry): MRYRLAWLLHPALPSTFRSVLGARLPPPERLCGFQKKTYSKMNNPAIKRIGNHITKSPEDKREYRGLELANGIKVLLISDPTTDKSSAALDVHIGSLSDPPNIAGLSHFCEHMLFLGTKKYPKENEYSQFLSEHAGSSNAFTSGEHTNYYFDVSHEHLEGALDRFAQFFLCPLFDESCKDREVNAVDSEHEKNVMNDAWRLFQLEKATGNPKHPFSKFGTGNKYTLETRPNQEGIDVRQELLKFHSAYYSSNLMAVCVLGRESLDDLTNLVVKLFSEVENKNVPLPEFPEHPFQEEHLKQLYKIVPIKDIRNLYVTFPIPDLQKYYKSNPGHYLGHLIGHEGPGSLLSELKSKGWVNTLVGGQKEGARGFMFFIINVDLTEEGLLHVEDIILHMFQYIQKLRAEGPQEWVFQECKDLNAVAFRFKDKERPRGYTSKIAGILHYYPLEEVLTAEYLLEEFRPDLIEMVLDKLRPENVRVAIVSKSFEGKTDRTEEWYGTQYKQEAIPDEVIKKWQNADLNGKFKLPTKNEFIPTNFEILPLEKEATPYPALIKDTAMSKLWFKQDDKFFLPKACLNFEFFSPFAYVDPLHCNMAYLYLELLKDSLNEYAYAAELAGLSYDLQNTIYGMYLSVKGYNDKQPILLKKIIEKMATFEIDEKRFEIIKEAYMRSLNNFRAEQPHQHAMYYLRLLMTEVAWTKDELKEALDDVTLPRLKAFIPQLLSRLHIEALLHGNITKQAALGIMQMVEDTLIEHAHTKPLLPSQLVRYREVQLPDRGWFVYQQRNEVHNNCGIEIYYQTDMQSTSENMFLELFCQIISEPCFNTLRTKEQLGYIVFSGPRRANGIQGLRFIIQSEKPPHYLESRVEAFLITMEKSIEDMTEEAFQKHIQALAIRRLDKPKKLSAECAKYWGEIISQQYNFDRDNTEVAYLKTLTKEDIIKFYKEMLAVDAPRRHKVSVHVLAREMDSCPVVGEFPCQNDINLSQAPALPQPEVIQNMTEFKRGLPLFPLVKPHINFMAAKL

[4] = target: T1, Insulin-degrading enzyme; experiment: activators of endogenous IDE in HEK cells, dose response, cell-based, fluorescence polarization (AID 588439); format: functional
[5] = target: T2, Heat shock factor protein 1 (Mus musculus, UniProt P38532); experiment: inhibition of MG132-induced HSE-luciferase signal, confirmation, cell-based, NIH3T3, luminescence, dose retest (AID 2382); format: functional;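 note: NIH3T3 fibroblasts with HSF1-driven luciferase reporter stressed by proteasome inhibitor MG132; luminescence from HSF1-driven luciferase expression after 8 hours of MG132 stress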
T2 sequence (P38532 whole entry): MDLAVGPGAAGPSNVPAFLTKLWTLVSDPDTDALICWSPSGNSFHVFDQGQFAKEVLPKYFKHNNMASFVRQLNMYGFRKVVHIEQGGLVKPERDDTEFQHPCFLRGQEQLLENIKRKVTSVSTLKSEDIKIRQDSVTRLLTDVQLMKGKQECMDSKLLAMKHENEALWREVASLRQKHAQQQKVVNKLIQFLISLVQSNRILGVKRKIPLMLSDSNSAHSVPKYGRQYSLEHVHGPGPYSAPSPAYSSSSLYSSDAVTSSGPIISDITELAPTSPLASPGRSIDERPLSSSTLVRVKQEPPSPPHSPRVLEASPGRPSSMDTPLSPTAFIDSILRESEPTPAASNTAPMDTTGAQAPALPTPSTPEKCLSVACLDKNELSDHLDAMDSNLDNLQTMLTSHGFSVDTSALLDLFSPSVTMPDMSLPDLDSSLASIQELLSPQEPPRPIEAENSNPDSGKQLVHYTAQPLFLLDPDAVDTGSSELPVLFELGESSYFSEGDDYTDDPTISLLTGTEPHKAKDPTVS

[6] = target: T3, Sentrin-specific protease 6 (Homo sapiens, UniProt Q9GZR1); format: functional
T3 sequence (Q9GZR1 whole entry): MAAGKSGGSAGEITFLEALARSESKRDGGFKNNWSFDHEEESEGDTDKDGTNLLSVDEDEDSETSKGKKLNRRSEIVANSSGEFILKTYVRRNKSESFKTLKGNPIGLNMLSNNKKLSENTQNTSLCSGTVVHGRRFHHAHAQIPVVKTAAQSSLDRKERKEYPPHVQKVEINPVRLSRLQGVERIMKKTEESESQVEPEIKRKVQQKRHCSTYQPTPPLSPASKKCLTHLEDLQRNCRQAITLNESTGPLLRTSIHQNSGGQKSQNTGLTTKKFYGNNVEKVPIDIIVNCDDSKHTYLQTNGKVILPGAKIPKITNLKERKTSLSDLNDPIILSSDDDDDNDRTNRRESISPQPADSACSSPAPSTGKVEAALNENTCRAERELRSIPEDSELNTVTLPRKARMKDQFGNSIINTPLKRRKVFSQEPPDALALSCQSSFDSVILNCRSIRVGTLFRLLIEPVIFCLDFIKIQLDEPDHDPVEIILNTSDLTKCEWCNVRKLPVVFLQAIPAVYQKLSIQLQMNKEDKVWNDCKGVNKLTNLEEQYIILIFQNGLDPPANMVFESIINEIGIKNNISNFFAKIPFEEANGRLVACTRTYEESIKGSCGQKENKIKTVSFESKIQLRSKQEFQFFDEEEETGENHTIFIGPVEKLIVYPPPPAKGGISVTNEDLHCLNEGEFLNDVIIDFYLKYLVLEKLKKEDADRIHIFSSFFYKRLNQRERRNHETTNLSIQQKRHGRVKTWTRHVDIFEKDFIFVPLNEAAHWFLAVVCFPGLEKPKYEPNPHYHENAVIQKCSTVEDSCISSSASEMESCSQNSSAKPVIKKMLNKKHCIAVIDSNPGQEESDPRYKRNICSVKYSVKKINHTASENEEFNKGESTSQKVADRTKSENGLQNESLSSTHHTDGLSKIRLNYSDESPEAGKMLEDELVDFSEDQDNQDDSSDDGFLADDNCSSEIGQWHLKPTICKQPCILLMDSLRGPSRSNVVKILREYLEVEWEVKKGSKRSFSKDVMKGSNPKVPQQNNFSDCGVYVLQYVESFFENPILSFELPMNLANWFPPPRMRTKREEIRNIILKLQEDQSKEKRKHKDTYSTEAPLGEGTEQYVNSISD

[7] = target: T4, Caspase-3 (Homo sapiens, UniProt P42574); format: functional
T4 sequence (P42574 whole entry): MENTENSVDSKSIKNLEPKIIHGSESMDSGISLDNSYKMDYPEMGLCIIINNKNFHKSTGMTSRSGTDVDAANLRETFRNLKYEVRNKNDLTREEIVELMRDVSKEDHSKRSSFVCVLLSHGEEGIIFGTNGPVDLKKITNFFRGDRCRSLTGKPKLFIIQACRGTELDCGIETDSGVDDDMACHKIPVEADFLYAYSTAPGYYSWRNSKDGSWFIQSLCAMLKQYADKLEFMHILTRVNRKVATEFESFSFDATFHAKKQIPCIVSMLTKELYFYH

[8] = target: T5, Sentrin-specific protease 7 (Homo sapiens, UniProt Q9BQF6); experiment: SENP7 protease inhibitors, SAR follow-up, biochemical, luminescence (AID 504497); format: functional
T5 sequence (Q9BQF6 whole entry): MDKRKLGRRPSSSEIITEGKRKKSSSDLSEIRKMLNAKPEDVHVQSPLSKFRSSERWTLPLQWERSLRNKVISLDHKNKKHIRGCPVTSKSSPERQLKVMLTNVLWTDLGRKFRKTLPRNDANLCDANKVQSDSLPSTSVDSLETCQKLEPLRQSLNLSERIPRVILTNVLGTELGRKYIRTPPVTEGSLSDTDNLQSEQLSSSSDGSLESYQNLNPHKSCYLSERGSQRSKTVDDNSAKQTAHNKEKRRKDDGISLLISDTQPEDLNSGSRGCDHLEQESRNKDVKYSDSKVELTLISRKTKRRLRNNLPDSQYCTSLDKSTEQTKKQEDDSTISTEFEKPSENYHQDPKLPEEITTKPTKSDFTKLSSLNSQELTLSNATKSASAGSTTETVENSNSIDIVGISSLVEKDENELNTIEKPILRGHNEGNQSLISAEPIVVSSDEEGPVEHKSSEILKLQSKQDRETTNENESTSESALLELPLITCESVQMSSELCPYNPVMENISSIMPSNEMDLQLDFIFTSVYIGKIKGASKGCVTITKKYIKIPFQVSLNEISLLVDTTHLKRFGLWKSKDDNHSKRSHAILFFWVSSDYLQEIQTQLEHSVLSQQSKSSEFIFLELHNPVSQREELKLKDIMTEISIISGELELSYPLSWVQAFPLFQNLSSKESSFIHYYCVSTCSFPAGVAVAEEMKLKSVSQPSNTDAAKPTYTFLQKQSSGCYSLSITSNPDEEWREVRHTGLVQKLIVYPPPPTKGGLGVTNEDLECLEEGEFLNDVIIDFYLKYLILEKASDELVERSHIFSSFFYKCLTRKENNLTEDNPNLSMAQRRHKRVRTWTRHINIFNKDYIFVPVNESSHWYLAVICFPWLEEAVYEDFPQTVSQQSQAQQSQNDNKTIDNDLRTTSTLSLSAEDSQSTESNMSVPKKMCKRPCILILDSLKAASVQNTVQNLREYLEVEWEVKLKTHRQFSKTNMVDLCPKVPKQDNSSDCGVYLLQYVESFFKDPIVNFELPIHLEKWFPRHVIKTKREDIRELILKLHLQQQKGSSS

[9] = target: T4, Caspase-3; experiment: SAR Analysis of small molecule inhibitors of Sentrin-specific proteases (SENPs) using a Caspase-3 Selectivity assay. [Related pubchem assays (depositor defined):AID2540, AID2599, AID434973, AID489001]; format: functional
[10] = test system: HT-1080; experiment: cytotoxicity in HT1080 fibrosarcoma cells, cell-based, fluorescence readout (AID 620); format: functional; conditions: Homo sapiens
[11] = target: T6, Sentrin-specific protease 8 (Homo sapiens, UniProt Q96LD8); experiment: SENP8 protease inhibitors, SAR follow-up, biochemical, luminescence (AID 504501); format: functional
T6 sequence (Q96LD8 whole entry): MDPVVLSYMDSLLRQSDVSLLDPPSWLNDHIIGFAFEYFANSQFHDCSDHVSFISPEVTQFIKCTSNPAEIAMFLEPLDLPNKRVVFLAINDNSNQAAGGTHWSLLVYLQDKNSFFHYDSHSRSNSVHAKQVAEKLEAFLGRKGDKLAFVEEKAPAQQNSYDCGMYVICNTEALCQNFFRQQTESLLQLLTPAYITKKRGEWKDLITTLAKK

[12] = target: T3, Sentrin-specific protease 6; experiment: SAR Analysis of small molecule inhibitors of Sentrin-specific protease 6 (SENP6) using a Luminescent assay. [Related pubchem assays (depositor defined):AID2582, AID2599]; format: functional
[13] = target: T5, Sentrin-specific protease 7; format: functional
[14] = target: T6, Sentrin-specific protease 8; format: functional
[15] = target: Luciferin 4-monooxygenase (Photinus pyralis, UniProt P08659); experiment: Counter Screen for Luciferase-based Assay Positives. [Related pubchem assays: 620, 618, 411 ]
Chain of Luciferin 4-monooxygenase (P08659 whole entry): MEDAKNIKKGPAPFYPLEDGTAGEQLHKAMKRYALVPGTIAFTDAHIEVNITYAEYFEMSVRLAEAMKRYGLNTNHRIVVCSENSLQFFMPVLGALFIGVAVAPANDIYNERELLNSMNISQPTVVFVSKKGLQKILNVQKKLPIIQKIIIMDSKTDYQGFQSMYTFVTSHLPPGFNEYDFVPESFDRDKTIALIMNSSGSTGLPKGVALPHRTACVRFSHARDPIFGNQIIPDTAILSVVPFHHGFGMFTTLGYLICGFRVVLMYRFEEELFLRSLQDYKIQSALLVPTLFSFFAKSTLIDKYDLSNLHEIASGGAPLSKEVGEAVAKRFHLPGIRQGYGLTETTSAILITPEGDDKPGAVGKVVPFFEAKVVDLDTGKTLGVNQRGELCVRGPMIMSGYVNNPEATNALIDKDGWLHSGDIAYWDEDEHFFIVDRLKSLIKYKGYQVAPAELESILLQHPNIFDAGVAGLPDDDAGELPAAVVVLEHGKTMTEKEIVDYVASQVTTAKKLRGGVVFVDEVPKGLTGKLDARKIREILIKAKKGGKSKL

| Structure (SMILES) | EC50 [1] | IC50 [2] | EC50 [3] | EC50 [4] | EC50 [5] | IC50 [6] | IC50 [7] | IC50 [8] | IC50 [9] | EC50 [10] | IC50 [11] | IC50 [12] | IC50 [13] | IC50 [14] | EC50 [15] |
| --- | --- | --- | --- | --- | --- | --- | --- | --- | --- | --- | --- | --- | --- | --- | --- |
| Cc1ccc2nc(N(CCCN(C)C)C(=O)COc3ccc(Cl)cc3)sc2c1 | > 54.7 µM (inactive) | 46.4 µM (inactive) | > 54.7 µM (inactive) | > 54.7 µM (inactive) |  |  |  |  |  |  |  |  |  |  |  |
| CC(=O)N(/N=C1\Sc2ccccc2C1=O)c1ccc(C)cc1C |  |  |  |  | < 0.16 µM (active) | 7.1 µM (active) | 33 µM (active) | 23.3 µM (active) | 7.42 µM (active) | > 50 µM (not active) | 13 µM (active) | 5.49 µM (active) | 21.5 µM (active) | 86.8 µM (active) | < 0.2 µM (active) |
